Earlier results, collected in US8518371B2, “Hypoxia-selective, weakly basic 2-nitroimidazole delivery agents and methods of use thereof” (Natural Pharmacia International, Inc., priority 2006, dated 2013).

Key:
[1] = tested on: tumor cells
[2] = tested on: animal models; conditions: in vivo
[3] = in vivo
[4] = escalating, rarely to

Compound: N[C@@H](Cc1ccc(B(O)O)cc1)C(=O)O [BPA, L-4-dihydroxy-borylphenylalanine]
- selectivity for tumor cells [1]: moderate
- safety and efficacy in animal models [2]: safe and efficacious
- retention times in tissues [3]: low

Compound: CC[C@]1(O)C[C@@H]2CN(CCc3c([nH]c4ccccc34)[C@@](C(=O)OC)(c3cc4c(cc3OC)N(C)[C@H]3[C@@](O)(C(=O)OC)[C@H](OC(C)=O)[C@]5(CC)C=CCN6CC[C@]43[C@@H]65)C2)C1 [vinblastine]
- MTD [4]: ≤ 18.5 mg/m^2

Compound: disodium mercapto-closo-dodecaborate [BSH]
- selectivity for tumor cells [1]: moderate
- safety and efficacy in animal models [2]: safe and efficacious
- retention times in tissues [3]: low
